Experiment [1] concerns cucumber Gray mold fungus. Nature of the experiment: Test Example 1: cucumber Gray mold control test, foliar spray on potted cucumber. In kind it is in vivo. The conditions noted are these: spray on cucumber stems and leaves, 6 days at 12° C. humid. As to the method: A plastic pot was stuffed with sand loam, and cucumber was sowed, and grown for 12 days in a greenhouse. A compound (Ia), compound (Ib) and compound (II) were prepared into flowable formulations according to the following preparation method, and the resultant flowable formulations were diluted with water, then, mixed to prepare a treatment solution containing the compound (Ia) and compound (II) of prescribed concentrations, and a treatment solution containing the compound (Ib) and compound (II) of prescribed concentrations. The treatment solutions were sprayed on stems and leaves so as to fully adhere to the leaf surfaces of the cucumber. After spraying, the plant was air-dried, and a PDA medium containing spores of cucumber Gray mold fungus was placed on the cucumber leaf surface. Thereafter, it was left for 6 days at 12° C. under humid condition, then, a control effect thereof was checked.
Further, wettable powders of the compound (Ia), compound (Ib) and compound (II) each were diluted with water to prescribed concentrations to prepare respective treatment solutions, which were subjected to a parallel test.
In checking, evaluation indices described later were used. According to formula 1, the pathogenesis degree was calculated, and based on the pathogenesis degree, a controlling value (%) was calculated using formula 2.
A compound (Ia), compound (Ib) or compound (II) (10 parts), a mixture (35 parts) of white carbon and polyoxyethylene alkyl ether sulfate ammonium salt (weight ratio 1:1) and water (55 parts) were mixed, and finely ground by a wet grinding method to obtain respective flowable formulations.
• 0: disease spot diameter, 0 mm • 1: disease spot diameter, 1 to 5 mm • 2: disease spot diameter, 5 to 10 mm • 3: disease spot diameter, 10 to 15 mm • 4: disease spot diameter, 15 to 20 mm • 5: disease spot diameter, over 20 mm pathogenesis degree=Σ(evaluation index of checked leaf)×100/(5×number of checked leaves) Formula 1 controlling value (%)=100×(A−B)/A Formula 2 • A: pathogenesis degree of plant in non-treated district • B: pathogenesis degree of plant in treated district

In experiment [2] the test system is cucumber Gray mold fungus. Description: Test Example 2: cucumber Gray mold control test, foliar spray on potted cucumber, disease spot diameter indices. It is filed as in vivo. As to conditions: sum over 8 cucumber leaves, index 0 (spot 0 mm) to 5 (over 20 mm), 12° C. humid. How it is done:
A plastic pot was stuffed with sand loam, and cucumber was sowed, and grown for 12 days in a greenhouse. A compound (Ia), compound (Ib), compound (III) and compound (IV) were prepared into flowable formulations according to the following preparation method, and the resultant flowable formulations were diluted with water, then, mixed to prepare a treatment solution containing the compound (Ia) and compound (III) of prescribed concentrations, a treatment solution containing the compound (Ib) and compound (III) of prescribed concentrations, a treatment solution containing the compound (Ia) and compound (IV) of prescribed concentrations, and a treatment solution containing the compound (Ib) and compound (IV) of prescribed concentrations. The treatment solutions were sprayed on stems and leaves so as to fully adhere to the leaf surfaces of the cucumber. After spraying, the plant was air-dried, and a PDA medium containing spores of cucumber Gray mold fungus was placed on the cucumber leaf surface. Thereafter, it was left under humid condition at 12° C., then, a control effect thereof was checked.
Further, wettable powders of the compound (Ia), compound (Ib), compound (III) and compound (IV) each were diluted with water to prescribed concentrations to prepare respective treatment solutions, which were subjected to a parallel test.
In checking of the control effect, the disease spot diameter was measured for 8 leaves of cucumber. A case of a disease spot diameter of 0 mm was evaluated as a controlling index of 0, a case of a disease spot diameter of 1 to 5 mm was evaluated as a controlling index of 1, a case of a disease spot diameter of 5 to 10 mm was evaluated as a controlling index of 2, a case of a disease spot diameter of 10 to 15 mm was evaluated as a controlling index of 3, a case of a disease spot diameter of 15 to 20 mm was evaluated as a controlling index of 4, and a case of a disease spot diameter of over 20 mm was evaluated as a controlling index of 5.
A compound (Ia), compound (Ib), compound (III) or compound (IV) (10 parts), a mixture (35 parts) of white carbon and polyoxyethylene alkyl ether sulfate ammonium salt (weight ratio 1:1) and water (55 parts) were mixed, and finely ground by a wet grinding method to obtain respective flowable formulations.

The mark [3] stands for this setting: active ingredient concentration 5 ppm.
Setting [4] is: active ingredient concentration 20 ppm.
[5] abbreviates: active ingredient concentration 40 ppm.
The mark [6] stands for this setting: active ingredient concentration 10 ppm.
Setting [7] is: active ingredient concentration 2.5 ppm.

The source of these data is US8592438B2, “Plant disease control composition” (Sumitomo Chemical Intellectual Property Service, Ltd, priority 2008, dated 2013).

Take `CNC(=O)C(OC)c1ccccc1COc1cc(C)ccc1C` (stereo not drawn) [compound (Ib)]: the controlling value in experiment [1] (setting [3]) turned out to be 48%; in experiment [1] (setting [4]), 60%; in experiment [1] (setting [5]) it was 68%. Moreover, the “sum of controlling indices” value in experiment [2] (setting [3]) is given as 25; in experiment [2] (setting [6]), 26; in experiment [2] (setting [4]), 24; in experiment [2] (setting [5]), 24.
Turning to `CC#Cc1cc(C)nc(Nc2ccccc2)n1` [compound (III), 4-methyl-N-phenyl-6-(1-propynyl)-2-pyrimidinamine, reference compound], the “sum of controlling indices” value in experiment [2] (setting [3]) was 10.
For the compound `Cc1cc(C2CC2)nc(Nc2ccccc2)n1` [compound (IV), 4-cyclopropyl-6-methyl-N-phenyl-2-pyrimidinamine, reference compound], the “sum of controlling indices” value stood at 24 in experiment [2] (setting [7]) and 9 in experiment [2] (setting [3]).
In turn, `Cc1cc(C)nc(Nc2ccccc2)n1` [compound (II), 4,6-dimethyl-N-phenyl-2-pyrimidinamine, reference compound] had a controlling value in experiment [1] (setting [6]) of 30%.
`CNC(=O)[C@H](OC)c1ccccc1COc1cc(C)ccc1C` [compound (Ia)]: the results for the controlling value in experiment [1] (setting [7]), in experiment [1] (setting [6]) and in experiment [1] (setting [4]) were 48%, 60% and 68%, respectively. Besides, the “sum of controlling indices” value stood at 27 in experiment [2] (setting [7]), 25 in experiment [2] (setting [3]), 24 in experiment [2] (setting [6]) and 23 in experiment [2] (setting [4]).
